# In patent US5981497A, “Utilization of sophorolipids as therapeutically active substances or cosmetic products, in particular for the treatment of the skin” (Institut Francais du Petrole, priority 1995, dated 1999):
# How the values were obtained:
# [1] = target: T1, fibrin clot reconstituted with bovine thrombin and human fibrinogen (Homo sapiens, UniProt P02671+P02675+P02679); assay: Fibrinolysis in vitro (lysis of fibrin clot); type: biochemical;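 also: values are percent lysis of the fibrin clot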
# T1 sequence (P02671 20-644 isoform P02671-2 limits assumed): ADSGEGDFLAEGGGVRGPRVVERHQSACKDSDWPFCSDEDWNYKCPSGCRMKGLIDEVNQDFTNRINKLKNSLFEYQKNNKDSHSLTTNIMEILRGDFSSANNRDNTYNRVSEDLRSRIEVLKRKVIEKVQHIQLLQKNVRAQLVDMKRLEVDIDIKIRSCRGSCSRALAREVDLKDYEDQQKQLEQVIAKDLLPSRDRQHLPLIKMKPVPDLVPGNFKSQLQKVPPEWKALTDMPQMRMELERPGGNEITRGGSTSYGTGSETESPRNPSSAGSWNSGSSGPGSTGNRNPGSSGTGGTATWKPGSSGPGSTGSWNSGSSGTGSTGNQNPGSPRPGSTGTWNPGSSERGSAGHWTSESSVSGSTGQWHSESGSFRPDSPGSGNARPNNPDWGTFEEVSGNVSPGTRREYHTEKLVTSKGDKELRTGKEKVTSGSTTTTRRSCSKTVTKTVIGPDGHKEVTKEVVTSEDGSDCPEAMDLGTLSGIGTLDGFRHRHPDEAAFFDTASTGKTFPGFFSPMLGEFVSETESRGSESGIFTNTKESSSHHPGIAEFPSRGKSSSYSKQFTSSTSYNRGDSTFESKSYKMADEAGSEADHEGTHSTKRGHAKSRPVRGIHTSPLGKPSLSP
# T1 sequence (P02675 45-491 limits assumed): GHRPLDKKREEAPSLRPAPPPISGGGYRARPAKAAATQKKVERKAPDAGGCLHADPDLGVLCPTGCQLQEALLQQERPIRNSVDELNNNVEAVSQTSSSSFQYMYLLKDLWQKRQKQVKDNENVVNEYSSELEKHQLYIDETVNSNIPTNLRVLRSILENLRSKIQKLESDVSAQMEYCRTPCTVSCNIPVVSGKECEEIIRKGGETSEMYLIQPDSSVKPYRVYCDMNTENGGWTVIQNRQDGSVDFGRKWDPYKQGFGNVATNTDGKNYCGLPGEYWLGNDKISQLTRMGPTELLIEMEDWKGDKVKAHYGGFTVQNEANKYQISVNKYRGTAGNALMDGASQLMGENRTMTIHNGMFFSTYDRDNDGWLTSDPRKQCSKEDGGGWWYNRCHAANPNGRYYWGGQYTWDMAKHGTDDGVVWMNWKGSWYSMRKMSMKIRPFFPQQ
# T1 sequence (P02679 27-437 isoform P02679-2 limits assumed): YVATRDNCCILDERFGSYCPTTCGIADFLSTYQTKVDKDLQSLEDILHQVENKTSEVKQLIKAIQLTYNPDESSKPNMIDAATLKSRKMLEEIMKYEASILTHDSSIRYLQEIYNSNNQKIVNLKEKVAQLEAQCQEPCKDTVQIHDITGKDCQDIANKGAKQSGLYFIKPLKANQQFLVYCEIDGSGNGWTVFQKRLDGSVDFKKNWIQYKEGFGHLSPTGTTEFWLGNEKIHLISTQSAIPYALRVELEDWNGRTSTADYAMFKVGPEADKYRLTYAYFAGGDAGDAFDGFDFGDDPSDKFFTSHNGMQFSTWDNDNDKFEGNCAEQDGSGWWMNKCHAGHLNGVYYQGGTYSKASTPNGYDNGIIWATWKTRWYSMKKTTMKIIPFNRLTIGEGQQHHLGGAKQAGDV
# Method: They also act directly on necrotic plaque. […] This lysis was measured from a fibrin clot that was reconstituted with bovine thrombin and human fibrinogen. The clot that is obtained is covered by 0.5 ml of PBS that contains the sample. The modification of the fibrin gel thickness at 4 hours and 24 hours makes it possible to quantify the fibrinolytic activity. This activity will therefore promote fibrinolysis at wounds, making it possible to act on the bedsore spot and to induce better granulation, as well as better organic tissue oxygenation. Moreover, owing to their surfactant property, sophorolipids make the fragments, molecules, soluble and detach the dead cells from the bed of the wound. This last action is more particularly due to their role in desquamation, which will be described below.
# [2] = Cytotoxicity on primocultures at 24 hours (neutral red), fibroblasts; type: cell-based; details: fibroblasts, 24 hours, read-out: Cellular Viability Rate; for viability at 24 h, 1000 µM: 10^-3M; for viability at 24 h, 100 µM: 10^-4M; for viability at 24 h, 10 µM: 10^-5M; for viability at 24 h, 1 µM: 10^-6M
# Source text: (§1) Their innocuousness and their activity make it possible to use them in other stages of healing, namely granulation and epithelialization, by modulating their concentration in the formulas of products that are used. This is possible only because of the low cytotoxicity of sophorolipids, as Tables 3A and 3B show. The toxicity of the products of the invention has been evaluated with a viability test with neutral red on two cellular types of the skin, cells L929 and other fibroblasts of the dermis and cells NCTC 2544 and keratinocytes of the epidermis. The results, which are presented in Tables 3A, 3B, correspond to the rates of cellular viability that are expressed in % relative to the negative test.
# [3] = Cytotoxicity on primocultures at 24 hours (neutral red), keratinocytes; type: cell-based; details: read-out: Cellular Viability Rate; for viability at 24 h, 1000 µM: 10^-3M; for viability at 24 h, 100 µM: 10^-4M; for viability at 24 h, 10 µM: 10^-5M; for viability at 24 h, 1 µM: 10^-6M
# Source text: as §1
# [4] = Cytotoxicity on L929 at 24 hours (neutral red); type: cell-based; details: mouse, l929 cells, read-out: Cellular Viability Rate; for viability at 24 h, 50000 µM: 5.10-2M; for viability at 24 h, 5000 µM: 5.10-3M; for viability at 24 h, 500 µM: 5.10-4M; for viability at 24 h, 10000 µM: 10^-2M; for viability at 24 h, 1000 µM: 10^-3M; for viability at 24 h, 100 µM: 10^-4M; for viability at 24 h, 10 µM: 10^-5M
# Source text: as §1
# [5] = Cytotoxicity on NCTC2544 at 24 hours (neutral red); type: cell-based; details: human, nctc2544 cells, read-out: Cellular Viability Rate; for viability at 24 h, 50000 µM: 5.10-2M; for viability at 24 h, 5000 µM: 5.10-3M; for viability at 24 h, 500 µM: 5.10-4M; for viability at 24 h, 10000 µM: 10^-2M; for viability at 24 h, 1000 µM: 10^-3M; for viability at 24 h, 100 µM: 10^-4M; for viability at 24 h, 10 µM: 10^-5M
# Source text: as §1
# [6] = tested on: keratinocyte culture (detachment of corneocytes); assay: Desquamating test, detachment of corneocytes in vitro; type: cell-based; details: for T60-T0 mean difference: p less than 0.001; for activity at 100 µM / activity at 10 µM / activity at 1 µM: Keratinocyte, read-out: %/TN, proportion of detached corneocytes relative to the negative test
# Source text: Variation coefficient CV is obtained as follows: [formula]
# Actually, the therapeutic applications incidentally involve cosmetic applications.
# in vitro = details: keratinocyte culture
# Method: A keratinocyte culture that was placed under conditions that promote the differentiation of cells was selected as a cellular model for the study. The actions of sophorolipids in acid form A, sophorolipids in lactone form B, and lactic acid on the detachment of corneocytes of the selected cellular model were tested in vitro in parallel. In each experiment, the mean difference T60-T0 (corneocytes/ml), as well as the proportion of detached corneocytes, expressed in percentage relative to the negative test (%/TN), were determined.
# Cellular viability, measured with the Neutral Red test, is expressed relative to the negative test (%).
structure (smiles),measurement,setting,value
CC(CCCCCC/C=C\CCCCCCCC(=O)O)O[C@@H]1O[C@H](CO)[C@@H](O)[C@H](O)[C@H]1O[C@@H]1O[C@H](CO)[C@@H](O)[C@H](O)[C@H]1O (stereo partly shown) [Sophorolipid in Acid Form],Lysis of the fibrin clot,"[1]; 4 hours, 10% MS",75 % relative to TN
same,Lysis of the fibrin clot,"[1]; 4 hours, 10-1M",66 % relative to TN
same,Lysis of the fibrin clot,"[1]; 4 hours, 10^-2M",5 % relative to TN
same,Lysis of the fibrin clot,"[1]; 4 hours, 10^-3M",0 % relative to TN
same,Lysis of the fibrin clot,"[1]; 4 hours, 10^-4M",0 % relative to TN
same,Lysis of the fibrin clot,"[1]; 4 hours, 10^-5M",0 % relative to TN
same,Lysis of the fibrin clot,"[1]; 24 hours, 10% MS",90 % relative to TN
same,Lysis of the fibrin clot,"[1]; 24 hours, 10-1M",80 % relative to TN
same,Lysis of the fibrin clot,"[1]; 24 hours, 10^-2M",40 % relative to TN
same,Lysis of the fibrin clot,"[1]; 24 hours, 10^-3M",20 % relative to TN
same,Lysis of the fibrin clot,"[1]; 24 hours, 10^-4M",5 % relative to TN
same,Lysis of the fibrin clot,"[1]; 24 hours, 10^-5M",0 % relative to TN
same,"viability at 24 h, 1000 µM",[2],85.7%
same,"viability at 24 h, 100 µM",[2],98.3%
same,"viability at 24 h, 10 µM",[2],98.7%
same,"viability at 24 h, 1 µM",[2],99.7%
same,"viability at 24 h, 1000 µM",[3],86.7%
same,"viability at 24 h, 100 µM",[3],99.3%
same,"viability at 24 h, 10 µM",[3],99.9%
same,"viability at 24 h, 1 µM",[3],99.5%
same,"viability at 24 h, 50000 µM",[4],5.47%
same,"viability at 24 h, 5000 µM",[4],7.62%
same,"viability at 24 h, 500 µM",[4],99.2%
same,"viability at 24 h, 10000 µM",[4],6.18%
same,"viability at 24 h, 1000 µM",[4],100%
same,"viability at 24 h, 100 µM",[4],102%
same,"viability at 24 h, 10 µM",[4],101%
same,"viability at 24 h, 50000 µM",[5],6.35%
same,"viability at 24 h, 5000 µM",[5],8.34%
same,"viability at 24 h, 500 µM",[5],99.9%
same,"viability at 24 h, 10000 µM",[5],7.12%
same,"viability at 24 h, 1000 µM",[5],100%
same,"viability at 24 h, 100 µM",[5],100%
same,"viability at 24 h, 10 µM",[5],101%
same,T60-T0 mean difference,[6]; 10^-4M,2278 corneocytes/ml
same,T60-T0 mean difference,[6]; 10^-5M,1944 corneocytes/ml
same,T60-T0 mean difference,[6]; 10^-6M,1555 corneocytes/ml
same,activity at 100 µM,[6]; 10^-4M,195%
same,activity at 10 µM,[6]; 10^-5M,167%
same,activity at 1 µM,[6]; 10^-6M,133%
same,viability at 1 µM,in vitro,99.6%
same,viability at 10 µM,in vitro,99.8%
same,viability at 100 µM,in vitro,98.7%
CC1CCCCCC/C=C\CCCCCCCC(=O)O[C@H]2[C@H](O)[C@@H](O)[C@H](O[C@H]3[C@H](O1)O[C@H](CO)[C@@H](O)[C@@H]3O)O[C@@H]2CO (stereo partly shown) [Sophorolipid in Lactone Form],Lysis of the fibrin clot,"[1]; 4 hours, 30% MS",15 % relative to TN
same,Lysis of the fibrin clot,"[1]; 24 hours, 30% MS",33 % relative to TN
same,"viability at 24 h, 1000 µM",[2],5.96%
same,"viability at 24 h, 100 µM",[2],91.2%
same,"viability at 24 h, 10 µM",[2],100%
same,"viability at 24 h, 1 µM",[2],101%
same,"viability at 24 h, 1000 µM",[3],6.58%
same,"viability at 24 h, 100 µM",[3],95.9%
same,"viability at 24 h, 10 µM",[3],99.6%
same,"viability at 24 h, 1 µM",[3],99.6%
same,"viability at 24 h, 50000 µM",[4],5.65%
same,"viability at 24 h, 5000 µM",[4],5.44%
same,"viability at 24 h, 500 µM",[4],6.63%
same,"viability at 24 h, 10000 µM",[4],5.26%
same,"viability at 24 h, 1000 µM",[4],5.71%
same,"viability at 24 h, 100 µM",[4],87%
same,"viability at 24 h, 10 µM",[4],96.5%
same,"viability at 24 h, 50000 µM",[5],5.86%
same,"viability at 24 h, 5000 µM",[5],6.44%
same,"viability at 24 h, 500 µM",[5],8.7%
same,"viability at 24 h, 10000 µM",[5],6.49%
same,"viability at 24 h, 1000 µM",[5],6.17%
same,"viability at 24 h, 100 µM",[5],85.2%
same,"viability at 24 h, 10 µM",[5],95.5%
same,T60-T0 mean difference,[6]; 10^-4M,2389 corneocytes/ml
same,T60-T0 mean difference,[6]; 10^-5M,1833 corneocytes/ml
same,T60-T0 mean difference,[6]; 10^-6M,1528 corneocytes/ml
same,activity at 100 µM,[6]; 10^-4M,205%
same,activity at 10 µM,[6]; 10^-5M,157%
same,activity at 1 µM,[6]; 10^-6M,131%
same,viability at 1 µM,in vitro,98.8%
same,viability at 10 µM,in vitro,101%
same,viability at 100 µM,in vitro,99.1%
